Laboratory results taken from US20230241233A1, “ORAL PHARMACEUTICAL COMPOSITIONS COMPRISING LIPID CONJUGATES” (UNIVERSITAT HEIDELBERG, priority 2020, published 2023).

Experiments:
[1] = Bioavailability of octreotide SEDDS formulation in beagle dogs; settings: dog, plasma, oral, 1.5 mg/animal
Protocol: The administration of octreotide in SEDDS formulation was investigated in a study in beagle dogs at Charles River, Evreux, France (Study No 47656 PAC and 48482 PAC). […] Animals were treated with octreotide in SEDDs formulation, or octreotide alone, prepared in citrate buffer (100 mM, pH 5.5), by single oral administration via gavage. For determination of the absolute bioavailability plasma concentrations after intravenous bolus injection (in PBS) were determined. Between the cycles, a wash-out phase of one week was performed.
Plasma concentrations of all investigated peptide therapeutics were determined by quantification using a validated UPLC-MS/MS assay (according to the pertinent recommendations for bioanalytical method development of the US FDA and EMA). All assays were performed on a Waters Xevo TQ-XS triple quadrupole tandem mass spectrometer coupled to a Waters Acquity classic UPLC using C18 columns, heated electrospray ionization (ESI), and selected ion monitoring in the positive ion mode.

[2] = Pharmacokinetic evaluation of octreotide lipid conjugate in beagle dogs (Charles River Study No 47656 PAC); assay type: in vivo; settings: dog, plasma, conjugate dose 0 mg, oral gavage octreotide 0.12 mg/kg, vs iv bolus 0.01 mg/kg, read-out: abs. bioavailability
Protocol: Between the cycles, a washout phase of one week was performed.
First, animals received an intravenous bolus injection of 0.01 mg/kg octreotide. The consecutive administrations were given orally by gavage. After a wash-out of one week animals #1 and #2 received 0.12 mg/kg free octreotide and animals #3 and #4 received 0.12 mg/kg octreotide with 0.3 mg/kg lipid-conjugate. After a wash-out of one week animals #1 and #2 received 0.12 mg/kg free octreotide with 1 mg/kg lipid-conjugate and animals #3 and #4 received 0.12 mg/kg octreotide with 3 mg/kg lipid-conjugate. After a wash-out of one week animals #1 and #2 received 0.12 mg/kg free octreotide with 10 mg/kg lipid-conjugate and animals #3 and #4 received 0.12 mg/kg octreotide with 30 mg/kg lipid-conjugate. After a wash-out of one week animals #1 and #2 received 0.012 mg/kg free octreotide with 1 mg/kg lipid-conjugate and animals #3 and #4 received 1.2 mg/kg octreotide with 1 mg/kg lipid-conjugate.

C[C@@H](O)[C@@H]1NC(=O)[C@H](CCCCN)NC(=O)[C@@H](Cc2c[nH]c3ccccc23)NC(=O)[C@H](Cc2ccccc2)NC(=O)[C@@H](NC(=O)[C@H](N)Cc2ccccc2)CSSC[C@@H](C(=O)N[C@H](CO)[C@@H](C)O)NC1=O [octreotide]
bioavailability [1]: 2.1% | bioavailability [2]: 2.1%
